# Results: article PMC12006963, “Application of Deuterium in an M1 Positive Allosteric Modulator Back-Up Program: The Discovery of VU6045422” (ACS Chemical Neuroscience, 2025)
# Where two headings read alike, the source gives them in different places.
# How the values were obtained:
# [1] = target: T1, rM1 (Rattus norvegicus, UniProt P08482); assay: Calcium mobilization, rat M1 (agonist and PAM modes); format: cell-based
# T1 sequence (P08482 1-460): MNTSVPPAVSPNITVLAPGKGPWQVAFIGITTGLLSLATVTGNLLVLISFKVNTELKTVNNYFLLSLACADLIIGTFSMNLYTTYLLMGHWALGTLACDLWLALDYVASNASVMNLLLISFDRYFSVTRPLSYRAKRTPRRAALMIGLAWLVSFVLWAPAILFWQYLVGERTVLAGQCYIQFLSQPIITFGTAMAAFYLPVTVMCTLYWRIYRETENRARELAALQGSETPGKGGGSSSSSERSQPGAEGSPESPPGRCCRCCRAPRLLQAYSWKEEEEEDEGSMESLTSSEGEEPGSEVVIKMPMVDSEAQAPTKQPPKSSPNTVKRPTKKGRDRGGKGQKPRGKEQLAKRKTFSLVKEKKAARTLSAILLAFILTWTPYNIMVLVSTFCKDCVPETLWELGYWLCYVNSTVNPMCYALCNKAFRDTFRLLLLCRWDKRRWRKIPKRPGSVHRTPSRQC
# [2] = Predicted hepatic clearance, hepatic microsomes (rat); format: in vitro ADME
# Description: (§1) After a 5 min preincubation, the reaction was initiated by the addition of NADPH (1 mM). At selected time intervals (0, 3, 7, 15, 25, and 45 min), aliquots were taken and subsequently placed into a 96-well plate containing cold acetonitrile with internal standard (50 ng/mL carbamazepine). Plates were then centrifuged at 3000 rcf (4 °C) for 10 min, and the supernatant was transferred to a separate 96-well plate and diluted 1:1 with water for LC/MS/MS analysis. The in vitro half-life ( 1/2, min, Eq. 1), intrinsic clearance (CLint, mL/min/kg, Eq. 2), and subsequent predicted hepatic clearance (CLhep, mL/min/kg, Eq. 3) was determined employing the […]
# (§2) where k represents the slope from linear regression analysis of the natural log percent remaining of a test compound as a function of incubation time […]
# (§3) (2) CLint = in vitroT1/2 x mg microsomes x gram liver x kg body wt ascale-up factors: of 20 (human) or 45 (rat) […]
# (§4) where Qh (hepatic blood flow, mL/min/kg) is 21 (human) or 70 (rat).
# (§5) LC/MS/MS Bioanalysis of Samples from Plasma Protein Binding and Intrinsic Clearance […]
# (§6) Samples were analyzed on a Thermo Electron TSQ Quantum Ultra triple quad mass spectrometer (San Jose, CA) via electrospray ionization (ESI) with two Themo Electron Accella pumps (San Jose, CA), and a Leap Technologies CTC PAL autosampler (Carrboro, NC). Analytes were separated by gradient elution on a dual column system with two Thermo Hypersil Gold (2.1 x 30 mm, 1.9 µm) columns (San Jose, CA) thermostated at 40 °C. HPLC mobile phase A was 0.1% formic acid in water and mobile phase B was 0.1% formic acid in acetonitrile. The gradient started […]
# (§7) for 0.2 min; returned to 10% B in 0.1 min. The total run time was 1.3 min and the HPLC flow rate was 0.8 mL/min. While pump 1 ran the gradient method, pump 2 equilibrated the alternate column isocratically at 10% B. Compound optimization, data collection, and processing was performed using Thermo Electron's QuickQuan software (v2.3) and Xcalibur (v2.0.7 SP1).
# (§8) In vivo DMPK experimental:
# (§9) Determination of brain to plasma ratio: […]
# [3] = Predicted hepatic clearance, hepatic microsomes (dog); format: in vitro ADME
# Description: as §1, §2, §3, §4, §5, §6, §7, §8, §9
# [4] = Plasma protein binding, equilibrium dialysis (dog); format: in vitro ADME; settings: pH 7.4, read-out: fu,plasma
# Description: page 5: Drug Metabolism Methods: In vitro Plasma protein binding and Brain homogenate binding: Determination of fraction unbound (f u) in plasma was conducted in vitro via equilibrium dialysis using HTDialysis (HTD) membrane plates. The top half of the plate was filled with 100 uL of Dubelco’s Phosphate Buffered Saline, pH 7.4 (DPBS). Compounds were diluted into plasma from each species (5 µM final concentration), which was aliquoted in triplicate to the ‘bottom half’ of the prepared HTD plate wells. The HTD plate was sealed and incubated for 6 hours at 37 °C. Following incubation, each well (both top and bottom halves) were transferred (20 µL) to the corresponding wells of a 96- shallow-well (V-bottom) plate. The daughter plates were then matrix-matched (DPBS side wells received equal volume of plasma, and plasma side wells received equal volume of DPBS), and extraction solution (120 µL; acetonitrile containing 50 nM carbamazepine as IS) was added to all wells of both daughter plates to precipitate protein and extract test article. The plates were then sealed and centrifuged (3500 rcf) for 10 minutes at ambient temperature. Supernatant (60 µL) from each well of the daughter plates was then transferred to the corresponding wells of new daughter plates (96-shallow-well, V bottom) containing water (Milli-Q, 60 µL/well), and the plates were sealed in preparation for LC-MS/MS analysis (see LC-MS/MS analysis method below). The unbound fraction (f u) was calculated following the equation below, and mean values for each species were calculated from 3 replicates. […] Fraction unbound for both plasma and brain samples was determined using Equation 4. f = Concbuffer u Concplasma Equation 4 Determination of fraction unbound in plasma. […]
# [5] = PAM mode, read-out: rM1 PAM EC50
# [6] = agonist mode, read-out: rM1 Agonist EC50
SMILES,rM1 PAM AChmax (%) [1] [%],"EC50 [1, 5] [nM]","EC50 [1, 6] [nM]",Predicted CLhep [2] [mL/min/kg],Predicted CLhep [3] [mL/min/kg],"fraction unbound at 6 h, 5 µM [4]"
Cn1cc2c(-c3cc(F)c(CN4Cc5ncccc5C4=O)c(F)c3)cccc2n1 [compound 1],79,213,> 30000,5.7,5.5,0.076
[2H]C1([2H])c2ncccc2C(=O)N1Cc1c(F)cc(-c2cccc3nn(C)cc23)cc1F [compound 3],85,361,> 30000,41.3,14.4,0.082
[2H]C1([2H])c2ncccc2C(=O)N1Cc1c(F)cc(-c2cccc3nn(C([2H])([2H])[2H])cc23)cc1F [compound 5],82,249,> 30000,35.9,8.8,0.119
